These results are taken from paper PMC9045483 (RSC Advances, 2022).

In one test the test system is HCT116. The experiment in a line: In vitro cytotoxic activity, MTT colorimetric assay, HCT116. It counts as cell-based. The settings on record: Homo sapiens, HCT-116, read-out: IC50 HCT116. (Tetrazolium dyes change colour on reduction, which living cells bring about.)
A further test relates to HepG2. The experiment in a line: In vitro cytotoxic activity, MTT colorimetric assay, HepG2. It counts as cell-based. The settings on record: Homo sapiens, HepG2, read-out: IC50 HepG2.
The subject of the next test is A549. The experiment in a line: In vitro cytotoxic activity, MTT colorimetric assay, A549. It counts as cell-based. The settings on record: Homo sapiens, A549, read-out: IC50 A549.
In another test the test system is MCF-7. The experiment in a line: In vitro cytotoxic activity, MTT colorimetric assay, MCF-7. The settings on record: Homo sapiens, MCF7, read-out: IC50 MCF-7. Format: cell-based.
The target of a further test is VEGFR-2 (Homo sapiens, UniProt P35968). The experiment in a line: biochemical.
Another test deals with EGFR^T790M (Homo sapiens, UniProt P00533, T790M). The experiment in a line: EGFR^T790M kinase inhibitory assay. It counts as biochemical.
Chain of EGFR^T790M (P00533 25-1210 T790M): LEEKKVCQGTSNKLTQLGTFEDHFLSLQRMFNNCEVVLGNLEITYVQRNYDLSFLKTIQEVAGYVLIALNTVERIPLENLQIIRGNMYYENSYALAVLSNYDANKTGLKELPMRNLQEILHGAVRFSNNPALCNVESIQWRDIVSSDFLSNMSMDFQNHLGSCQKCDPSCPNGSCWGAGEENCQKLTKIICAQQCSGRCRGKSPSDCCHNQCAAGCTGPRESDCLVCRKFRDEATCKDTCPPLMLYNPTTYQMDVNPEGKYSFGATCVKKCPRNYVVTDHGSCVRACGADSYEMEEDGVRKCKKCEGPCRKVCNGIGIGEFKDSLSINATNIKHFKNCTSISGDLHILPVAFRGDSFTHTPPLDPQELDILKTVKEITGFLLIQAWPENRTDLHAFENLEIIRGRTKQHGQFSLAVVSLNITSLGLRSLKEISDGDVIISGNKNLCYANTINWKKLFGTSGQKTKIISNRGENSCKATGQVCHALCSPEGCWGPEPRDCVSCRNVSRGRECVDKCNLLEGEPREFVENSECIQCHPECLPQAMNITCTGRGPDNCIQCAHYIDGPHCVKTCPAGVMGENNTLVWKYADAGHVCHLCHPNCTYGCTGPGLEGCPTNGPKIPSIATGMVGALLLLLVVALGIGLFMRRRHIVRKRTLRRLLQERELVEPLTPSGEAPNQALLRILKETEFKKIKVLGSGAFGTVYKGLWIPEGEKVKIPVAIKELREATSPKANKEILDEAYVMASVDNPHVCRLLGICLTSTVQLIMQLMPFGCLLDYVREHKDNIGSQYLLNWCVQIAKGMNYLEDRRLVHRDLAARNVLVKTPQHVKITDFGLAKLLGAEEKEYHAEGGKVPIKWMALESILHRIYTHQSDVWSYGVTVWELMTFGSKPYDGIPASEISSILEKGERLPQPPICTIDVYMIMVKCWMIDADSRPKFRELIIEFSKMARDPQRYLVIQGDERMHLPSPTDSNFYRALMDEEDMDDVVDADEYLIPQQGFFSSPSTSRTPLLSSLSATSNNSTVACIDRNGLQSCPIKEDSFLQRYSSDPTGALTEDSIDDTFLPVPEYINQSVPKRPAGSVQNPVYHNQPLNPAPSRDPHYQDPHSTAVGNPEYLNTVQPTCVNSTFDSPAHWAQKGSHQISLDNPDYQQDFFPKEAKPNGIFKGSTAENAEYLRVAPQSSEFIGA

Chain of VEGFR-2 (P35968 20-1356): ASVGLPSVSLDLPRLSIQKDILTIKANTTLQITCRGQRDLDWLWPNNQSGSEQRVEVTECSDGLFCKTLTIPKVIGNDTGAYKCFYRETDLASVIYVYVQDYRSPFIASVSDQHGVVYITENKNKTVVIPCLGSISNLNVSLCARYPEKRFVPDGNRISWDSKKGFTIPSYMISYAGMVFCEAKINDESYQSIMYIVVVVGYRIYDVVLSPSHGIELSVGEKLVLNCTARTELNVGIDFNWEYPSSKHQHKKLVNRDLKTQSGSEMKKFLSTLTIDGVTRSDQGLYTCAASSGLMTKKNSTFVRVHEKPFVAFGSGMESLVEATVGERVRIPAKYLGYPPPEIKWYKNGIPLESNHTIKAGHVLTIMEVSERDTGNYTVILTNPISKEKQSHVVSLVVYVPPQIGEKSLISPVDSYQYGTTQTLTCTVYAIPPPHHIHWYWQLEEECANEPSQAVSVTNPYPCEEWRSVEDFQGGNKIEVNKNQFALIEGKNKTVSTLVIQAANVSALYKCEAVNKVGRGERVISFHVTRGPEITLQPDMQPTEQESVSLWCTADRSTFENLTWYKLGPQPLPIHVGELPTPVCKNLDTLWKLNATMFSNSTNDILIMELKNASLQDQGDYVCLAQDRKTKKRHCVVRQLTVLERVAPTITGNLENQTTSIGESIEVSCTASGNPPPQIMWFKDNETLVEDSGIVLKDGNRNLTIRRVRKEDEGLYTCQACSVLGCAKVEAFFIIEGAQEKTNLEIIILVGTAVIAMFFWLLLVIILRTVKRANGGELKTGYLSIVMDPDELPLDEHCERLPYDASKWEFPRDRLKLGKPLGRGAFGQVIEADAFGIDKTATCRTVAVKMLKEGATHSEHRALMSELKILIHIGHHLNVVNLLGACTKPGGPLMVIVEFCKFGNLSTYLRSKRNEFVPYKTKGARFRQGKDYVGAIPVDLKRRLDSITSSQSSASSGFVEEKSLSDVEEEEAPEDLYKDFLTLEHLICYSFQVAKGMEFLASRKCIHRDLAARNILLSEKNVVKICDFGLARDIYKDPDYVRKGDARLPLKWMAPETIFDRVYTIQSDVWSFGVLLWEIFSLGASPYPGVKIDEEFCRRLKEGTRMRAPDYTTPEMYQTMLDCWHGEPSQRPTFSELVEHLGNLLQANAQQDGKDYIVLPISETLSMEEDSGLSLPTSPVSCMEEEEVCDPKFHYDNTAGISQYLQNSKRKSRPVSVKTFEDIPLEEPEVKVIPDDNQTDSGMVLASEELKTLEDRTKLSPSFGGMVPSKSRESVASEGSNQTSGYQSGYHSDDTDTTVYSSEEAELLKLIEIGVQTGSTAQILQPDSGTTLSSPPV

In general, IC50 refers to the concentration needed to halve the response being measured. As to `O=C1NC(=O)C(=Cc2ccco2)S1` [Compound 3, 5-(furan-2-ylmethylene)thiazolidine-2,4-dione], the IC50 with HCT116 was 58.2 µM.
Turning to `O=C(CN1C(=O)SC(=Cc2cccs2)C1=O)Nc1ccccc1` [Compound 4a, 2-[2,4-Dioxo-5-(thiophen-2-ylmethylene)thiazolidin-3-yl]-N-phenylacetamide], the IC50 with HepG2 came to 52.1 ± 5.2 µM; in the test with A549 it was 51 ± 2.5 µM; in the test on MCF-7, 63.6 ± 3.8 µM; in the test with HCT116 it was 58.2 ± 0.7 µM.
As to `O=C(CN1C(=O)SC(=Cc2cccs2)C1=O)Nc1ccc(Cl)cc1` [Compound 4b, N-(4-Chlorophenyl)-2-[2,4-dioxo-5-(thiophen-2-ylmethylene)thiazolidin-3-yl]acetamide], the IC50 in the test with HepG2 stood at 35.4 ± 5.1 µM; in the test on A549 it was 36.1 ± 1.9 µM; in the test on MCF-7, 36.9 ± 1.3 µM; in the test with HCT116 it was 38.4 ± 3.9 µM.
The like results for `O=C(CN1C(=O)SC(=Cc2cccs2)C1=O)Nc1ccc(F)cc1` [Compound 4c, 2-[2,4-Dioxo-5-(thiophen-2-ylmethylene)thiazolidin-3-yl]-N-(4-fluorophenyl)acetamide] were, in that order, 34.2 ± 5.1 µM, 38.3 ± 1.9 µM, 39 ± 1.3 µM and 42.5 ± 3.9 µM.
For the compound `O=C(CN1C(=O)SC(=Cc2cccs2)C1=O)Nc1ccc(Br)cc1` [Compound 4d, N-(4-Bromophenyl)-2-[2,4-dioxo-5-(thiophen-2-ylmethylene)thiazolidin-3-yl]acetamide], the IC50 in the test on HepG2 worked out at 13.5 ± 3.9 µM; in the test on A549 it was 19 ± 3.9 µM; in the test with MCF-7, 22.7 ± 3.9 µM; with HCT116, 16.6 ± 3.9 µM; against VEGFR-2 it was 0.255 µM; against EGFR^T790M, 0.42 µM.
On to `Cc1ccc(NC(=O)CN2C(=O)SC(=Cc3cccs3)C2=O)cc1` [Compound 4e, 2-[2,4-Dioxo-5-(thiophen-2-ylmethylene)thiazolidin-3-yl]-N-(p-tolyl)acetamide], for which the concentration for half-maximal inhibition (IC50) in the test with HepG2 is 24.5 ± 3.9 µM; in the test with A549, 34 ± 3.9 µM; in the test with MCF-7, 25.2 ± 3.9 µM; in the test with HCT116, 21.3 ± 3.9 µM.
Consider `COc1ccc(NC(=O)CN2C(=O)SC(=Cc3cccs3)C2=O)cc1` [Compound 4f, 2-[2,4-Dioxo-5-(thiophen-2-ylmethylene)thiazolidin-3-yl]-N-(4-methoxyphenyl)acetamide], for which the IC50 stood at 10.2 ± 3.9 µM in the test with HepG2; 22.7 ± 3.9 µM with A549; 22.3 ± 3.9 µM with MCF-7; 17.7 ± 3.9 µM with HCT116; 0.36 µM at EGFR^T790M.
For `O=C(CN1C(=O)SC(=Cc2cccs2)C1=O)Nc1ccc(C(=O)O)cc1` [Compound 4g, 4-{2-[2,4-Dioxo-5-(thiophen-2-ylmethylene)thiazolidin-3-yl]acetamido}benzoic acid], the half-maximal inhibitory concentration (IC50) with HepG2 came out at 6.22 ± 3.9 µM; with A549, 12.9 ± 3.9 µM; with MCF-7 it was 10.7 ± 3.9 µM; with HCT116, 11.2 ± 3.9 µM; against EGFR^T790M, 0.23 µM.
Consider `O=C(CN1C(=O)SC(=Cc2ccco2)C1=O)Nc1ccccc1` [Compound 5a, 2-[5-(Furan-2-ylmethylene)-2,4-dioxothiazolidin-3-yl]-N-phenylacetamide], for which the IC50 came out at 52.1 ± 5.2 µM with HepG2, 53.2 ± 2.5 µM in the test with A549, 59.6 ± 3.8 µM in the test with MCF-7 and 48.3 ± 0.7 µM in the test with HCT116.
The like results for `O=C(CN1C(=O)SC(=Cc2ccco2)C1=O)Nc1ccc(Cl)cc1` [Compound 5b, N-(4-Chlorophenyl)-2-[5-(furan-2-ylmethylene)-2,4-dioxothiazolidin-3-yl]acetamide] were, in that order, 23.8 ± 3.9 µM, 36.2 ± 3.9 µM, 25.7 ± 3.9 µM and 28.2 ± 3.9 µM.
Consider `O=C(CN1C(=O)SC(=Cc2ccco2)C1=O)Nc1ccc(F)cc1` [Compound 5c, N-(4-Fluorophenyl)-2-[5-(furan-2-ylmethylene)-2,4-dioxothiazolidin-3-yl]acetamide], for which the IC50 with HepG2 amounted to 24.1 ± 2.5 µM; in the test with A549, 35.4 ± 1.9 µM; in the test on MCF-7, 28.6 ± 1.3 µM; in the test on HCT116, 35.7 ± 3.9 µM.
`Cc1ccc(NC(=O)CN2C(=O)SC(=Cc3ccco3)C2=O)cc1` [Compound 5d, 2-[5-(Furan-2-ylmethylene)-2,4-dioxothiazolidin-3-yl]-N-(p-tolyl)acetamide]: the IC50 with HepG2 was 23.6 ± 3.9 µM; in the test on A549, 29.7 ± 4.1 µM; in the test with MCF-7 it was 25.3 ± 4.5 µM; with HCT116 it was 26.4 ± 1.4 µM; on VEGFR-2, 0.276 µM.
For the compound `CC(C)c1ccc(NC(=O)CN2C(=O)SC(=Cc3ccco3)C2=O)cc1` [Compound 5e, 2-[5-(Furan-2-ylmethylene)-2,4-dioxothiazolidin-3-yl]-N-(4-isopropylphenyl)acetamide], the half-maximal inhibitory concentration (IC50) in the test on HepG2 came out at 23.8 ± 3.9 µM; in the test on A549, 32.9 ± 3.9 µM; in the test with MCF-7, 14.5 ± 3.9 µM; with HCT116, 10.7 ± 3.9 µM; against VEGFR-2, 0.263 µM; against EGFR^T790M, 0.41 µM.
Take `COc1ccc(NC(=O)CN2C(=O)SC(=Cc3ccco3)C2=O)cc1` [Compound 5f, 2-[5-(Furan-2-ylmethylene)-2,4-dioxothiazolidin-3-yl]-N-(4-methoxyphenyl)acetamide]: the concentration for half-maximal inhibition (IC50) with HepG2 was 11 ± 3.9 µM; in the test on A549 it was 13 ± 3.9 µM; in the test on MCF-7 it was 18.5 ± 3.9 µM; with HCT116, 15.7 ± 3.9 µM; on VEGFR-2 it was 0.247 µM; against EGFR^T790M, 0.35 µM.
On to `O=C(CN1C(=O)SC(=Cc2ccco2)C1=O)Nc1ccc(C(=O)O)cc1` [Compound 5g, 4-{2-[5-(Furan-2-ylmethylene)-2,4-dioxothiazolidin-3-yl]acetamido}benzoic acid], for which the IC50 was 3.86 ± 3.9 µM in the test with HepG2, 7.55 ± 3.9 µM in the test on A549, 10.7 ± 3.9 µM in the test on MCF-7 and 9.04 ± 3.9 µM in the test on HCT116.
Turning to `CNC(=O)c1cc(Oc2ccc(NC(=O)Nc3ccc(Cl)c(C(F)(F)F)c3)cc2)ccn1` [Sorafenib, sorafenib, reference compound], the concentration for half-maximal inhibition (IC50) in the test on HepG2 turned out to be 4 ± 0.33 µM.
